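Cultured in 96-well plates, cells were exposed to test compound for 48 hours across five concentrations. TGI marks complete inhibition of growth.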
Experiments:
Test in all cases: growth of human tumour cells (NCI), 48 h
SNB-19 CNS = test system: SNB-19 CNS
HOP-92 NSCLC = test system: HOP-92 NSCLC
UO-31 renal = test system: UO-31 renal
LOX IMVI melanoma = test system: LOX IMVI melanoma
NCI/ADR-RES ovarian = test system: NCI/ADR-RES ovarian
MOLT-4 leukemia = test system: MOLT-4 leukemia
SN12C renal = test system: SN12C renal
UACC-62 melanoma = test system: UACC-62 melanoma
NCI-H23 lung = test system: NCI-H23 lung
MDA-N = test system: MDA-N
NCI-H226 lung = test system: NCI-H226 lung
SK-MEL-28 melanoma = test system: SK-MEL-28 melanoma
NCI-H460 lung = test system: NCI-H460 lung
HT29 colon = test system: HT29 colon
HS 578T breast = test system: HS 578T breast
RXF 393 renal = test system: RXF 393 renal
786-0 renal = test system: 786-0 renal
KM12 colon = test system: KM12 colon
K-562 leukemia = test system: K-562 leukemia
OVCAR-8 ovarian = test system: OVCAR-8 ovarian
U251 CNS = test system: U251 CNS
PC-3 prostate = test system: PC-3 prostate
SW-620 colon = test system: SW-620 colon
COLO 205 colon = test system: COLO 205 colon
ACHN renal = test system: ACHN renal
SR leukemia = test system: SR leukemia
DU-145 prostate = test system: DU-145 prostate
SK-MEL-5 melanoma = test system: SK-MEL-5 melanoma
HCT-116 colon = test system: HCT-116 colon
A498 renal = test system: A498 renal
M14 melanoma = test system: M14 melanoma
HCC-2998 colon = test system: HCC-2998 colon
MCF7 breast = test system: MCF7 breast
OVCAR-5 ovarian = test system: OVCAR-5 ovarian
CAKI-1 renal = test system: CAKI-1 renal
TK-10 renal = test system: TK-10 renal
EKVX NSCLC = test system: EKVX NSCLC
NCI-H522 lung = test system: NCI-H522 lung
SF-295 CNS = test system: SF-295 CNS
HCT-15 colon = test system: HCT-15 colon
MALME-3M melanoma = test system: MALME-3M melanoma
T-47D breast = test system: T-47D breast
UACC-257 melanoma = test system: UACC-257 melanoma
IGROV1 ovarian = test system: IGROV1 ovarian
SF-268 CNS = test system: SF-268 CNS
A549 NSCLC = test system: A549 NSCLC
RPMI-8226 leukemia = test system: RPMI-8226 leukemia
HOP-62 NSCLC = test system: HOP-62 NSCLC
SK-OV-3 ovarian = test system: SK-OV-3 ovarian
MDA-MB-231 breast = test system: MDA-MB-231 breast
SK-MEL-2 melanoma = test system: SK-MEL-2 melanoma
OVCAR-4 ovarian = test system: OVCAR-4 ovarian
CCRF-CEM leukemia = test system: CCRF-CEM leukemia
HL-60(TB) leukemia = test system: HL-60(TB) leukemia
SF-539 CNS = test system: SF-539 CNS
MDA-MB-435 = test system: MDA-MB-435
SNB-75 CNS = test system: SNB-75 CNS
OVCAR-3 ovarian = test system: OVCAR-3 ovarian

Measured: TGI

CC(=O)Oc1cc2c[n+](C)c3c4cc(OC(C)=O)c(OC(C)=O)cc4ccc3c2cc1OC(C)=O
> 61.4 µM: SK-MEL-5 melanoma
73.4 µM: EKVX NSCLC
11 µM: RXF 393 renal
26.2 µM: HT29 colon
> 50.1 µM: OVCAR-5 ovarian
> 57.8 µM: SF-295 CNS
> 65.3 µM: A498 renal
> 32.5 µM: HCT-116 colon
> 48.4 µM: M14 melanoma
9.46 µM: UO-31 renal
not listed: MDA-MB-231 breast | SK-MEL-2 melanoma | OVCAR-4 ovarian | CCRF-CEM leukemia | HL-60(TB) leukemia | SF-539 CNS | MDA-MB-435 | SNB-75 CNS | OVCAR-3 ovarian
> 100 µM: all other assays above

COC(=O)[C@@H](NC1(c2ccccc2)c2ccccc2-c2ccccc21)[C@H](OC(=O)[C@H]1CCCN1S(=O)(=O)c1ccccc1)C(=O)OC
84.1 µM: HOP-92 NSCLC
not listed: HS 578T breast | CAKI-1 renal | RPMI-8226 leukemia
> 100 µM: all other assays above

COC(=O)CCCc1ccc2c(c1)CC1(Cc3ccccc3C1)C2
71.6 µM: CCRF-CEM leukemia
59.7 µM: SK-MEL-5 melanoma
56.1 µM: SK-MEL-2 melanoma
97.3 µM: HCT-15 colon
85.5 µM: RPMI-8226 leukemia
78.6 µM: HCT-116 colon
15.5 µM: MOLT-4 leukemia
62.5 µM: COLO 205 colon
53.6 µM: MDA-N
61.1 µM: MDA-MB-435
not listed: SNB-19 CNS | SK-MEL-28 melanoma | NCI-H460 lung | K-562 leukemia | SW-620 colon | SR leukemia | DU-145 prostate | CAKI-1 renal | SF-268 CNS | HL-60(TB) leukemia | SNB-75 CNS
> 100 µM: all other assays above

COC(=O)c1c(C(=O)OC)c2ccc(-c3ccc(Cl)cc3)nn2c1C(=O)c1ccc([N+](=O)[O-])cc1
76.2 µM: CAKI-1 renal
55.3 µM: RPMI-8226 leukemia
39.5 µM: HOP-92 NSCLC
84.4 µM: EKVX NSCLC
57.9 µM: TK-10 renal
37.3 µM: NCI-H522 lung
55.5 µM: RXF 393 renal
82.6 µM: MOLT-4 leukemia
not listed: HS 578T breast | SR leukemia | MALME-3M melanoma | IGROV1 ovarian | SNB-75 CNS
> 100 µM: all other assays above

CC1(C)CSCC(C)(C)C(=N/N)/C1=N\N
not listed: UO-31 renal | MOLT-4 leukemia | HS 578T breast | RXF 393 renal | RPMI-8226 leukemia | MDA-MB-231 breast | OVCAR-4 ovarian | CCRF-CEM leukemia
> 100 µM: all other assays above
